For one assay, the target named is T1, ERK2 (Homo sapiens, UniProt P28482).
T1 construct: made in house
Description: ERK2 Rapidfire Mass Spectrometry Inhibition of Catalysis Assay. In kind it is biochemical. To be noted: 1.2 nM ERK2, 16 μM Erktide, 120 μM ATP (measured Km), 15 minute pre-incubation; read-out: ERK2 Mass Spectrometry Enzyme IC50. Here is the method: (§1) All compounds or DMSO (dimethyl sulphoxide) for the ERK2 Mass Spectrometry and A375 phospho-p90RSK assays were dispensed from source plates containing compounds at 10 mM in 100% (v/v) DMSO or 100% DMSO, directly into assay plates using an Echo 555 Acoustic dispenser (Labcyte Inc™). Depending on the assay, two separate plate preparations were followed. In Workflow A, 10 mM compound stocks were diluted 1:100 using a fixed-tip 96-head Agilent VPrep liquid handler (Agilent Technologies, Santa Clara, Calif.) to give four intermediate dilutions (10 mM, 100 μM, 1 μM, 10 nM). In Workflow B, 10 mM compound stocks were diluted 1:10 using a Tecan Freedom Evo (Tecan Group Ltd., Switzerland), and then 1:100 using the Echo 555 and Labcyte LX to produce three intermediate dilutions across three Labcyte qualified source plates (1 mM, 10 μM, 100 nM). These intermediate dilution plates were then used by the Echo 555 to generate final assay-ready compound plates with a 12 point dose range (10, 3, 1, 0.25, 0.1, 0.03, 0.01, 0.0025, 0.001, 0.0003, 0.0001, 0.0000125 μM) in order to calculate compound IC50s, with a total DMSO concentration in the assay of 1%. For the ERK2 Mass Spectrometry assay Workflow B was used. For the A375 phospho-p90RSK cell assay, the intermediate 1:100 dilution plate described in Workflow A was used by the Echo to dispense compounds and DMSO directly into the cell plates with a 12 point dose range (30, 10, 3.125, 1.25, 0.3, 0.1, 0.03125, 0.0125, 0.003, 0.001, 0.0003125, 0.00003 μM) in order to calculate compound IC50's, with a total DMSO concentration in the assay of 0.3%.
ERK2 Rapidfire Mass Spectrometry Inhibition of Catalysis Assay
MEK U911-activated ERK2 protein was expressed and purified in-house. Enzyme and substrate solutions were made up in assay buffer consisting of 50 mM Tris (pH 7.5), 10 mM MgCl2, 0.1 mM EGTA (ethylene glycol tetraacetic acid), 10 mM DTT (dithiothreitol) and 0.01% (v/v) CHAPS (3-[(3-Cholamidopropyl)dimethylammonio]-1-propanesulfonate). 1.2 nM ERK2 protein was prepared in assay buffer and 10 μl was dispensed into each well of a polypropylene, 384-well plate (#781201, Greiner) containing test and reference control compounds. […] The reaction was allowed to progress for 20 minutes at room temperature before being quenched by the addition of 80 al 1% (v/v) formic acid. The assay plates were then run on the RapidFire Mass Spectrometry platform (Agilent) to measure substrate (unphosphorylated Erktide) and product (phosphorylated Erktide) levels. Data was analysed and IC50's (half maximal inhibitory concentration) were calculated using Genedata Screener® software.

The test system of assay [1] is phospho-p90RSK in A375 cell line. In words: A375 Phospho-p90RSK Cellular Assay. In kind it is cell-based, human. To be noted: Homo sapiens, A375 cells, 2 hours incubation. As to the method:
as §1
A375 Phospho-p90RSK Cellular Assay
A375 cells were cultured in cell media composed of DMEM (Dulbecco's modified Eagle's medium), 10% (v/v) Foetal Calf Serum and 1% (v/v) L-Glutamine. After harvesting, cells were dispensed into black, 384-well Costar plates (#3712, Corning) to give 2400 cells per well in a total volume of 40 μl cell media, and were incubated overnight at 37° C., 90% relative humidity and 5% CO2 in a rotating incubator. Test compounds and reference controls were dosed directly into the cell plates using a Labcyte Echo 555 acoustic dispenser. The cell plates were then incubated for 2 hours at 37° C. before being fixed by the addition of 20 μl 12% formaldehyde in PBS/A (4% final concentration), followed by a 20 minute room temperature incubation, and then a 2× wash with 150 μl PBS/A (phosphate buffered saline containing albumin) using a BioTek ELx405 platewasher. Cells were permeabilised with 20 μl 0.1% Triton X-100 in PBS/A for 20 minutes at room temperature, and then washed 1× with 100 μl PBS/A. Primary phospho-p90RSK (Thr359) (D1E9) rabbit monoclonal antibody (#8753, Cell Signaling Technology) was diluted 1:1000 in assay buffer (0.05% (v/v) Tween, 5% (v/v) Foetal Calf Serum, in PBS/A), 20 μl added per well, and plates were incubated at 4° C. overnight. Cell plates were washed 2× with 200 μl PBS/T (phosphate buffered saline containing Tween-20), then 20 μl 1:500 dilution in assay buffer of Alexa Fluor® 647 goat anti-rabbit IgG secondary antibody (#A31573, Molecular Probes, Life Technologies), with a 1:5000 dilution of Hoechst 33342, was added per well. Following a 90 minute incubation at room temperature, plates were washed 2× with 200 μl PBS/T, and 40 μl PBS/A was added per well. Stained cell plates were covered with black lid seals, and then read on a Cellomics ArrayScan™ VTI imaging platform (Thermo Scientific), using an XF53 filter with 10× objective, with a LED light source set-up to analyse nuclear staining with Hoechst 33342 (405 nm) and secondary antibody staining of phospho-p90RSK (647 nm). Data was analysed and IC50's were calculated using Genedata Screener® software.

T1 sequence (P28482 whole entry): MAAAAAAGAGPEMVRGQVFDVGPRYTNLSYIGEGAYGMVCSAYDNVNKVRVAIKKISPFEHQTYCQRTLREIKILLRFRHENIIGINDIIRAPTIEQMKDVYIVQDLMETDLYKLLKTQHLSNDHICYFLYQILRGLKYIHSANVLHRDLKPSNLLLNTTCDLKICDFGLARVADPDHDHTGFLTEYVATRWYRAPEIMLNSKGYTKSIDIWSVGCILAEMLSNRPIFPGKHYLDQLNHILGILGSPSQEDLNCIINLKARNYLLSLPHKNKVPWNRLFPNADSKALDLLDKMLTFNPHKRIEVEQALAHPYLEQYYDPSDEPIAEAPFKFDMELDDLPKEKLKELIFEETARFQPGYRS

In general, IC50 refers to the point on the concentration scale where inhibition reaches its midpoint. As to `Cc1cnc(Nc2ccnn2C)nc1-c1cn2c(n1)C(=O)N(Cc1ccc(F)c(F)c1)[C@@H](C)C2` [Example 20, (S)-7-(3,4-Difluorobenzyl)-6-methyl-2-(5-methyl-2-((1-methyl-1H-pyrazol-5-yl)amino)pyrimidin-4-yl)-6,7-dihydroimidazo[1,2-a]pyrazin-8(5H)-one], the IC50 on ERK2 worked out at 0.4 nM; in assay [1] (A-375, 2 h), 38 nM.

As for `COc1cccc(CN2C(=O)c3nc(-c4nc(Nc5ccnn5C)ncc4Cl)cn3C[C@@H]2C)c1` [Example 7, (S)-2-(5-Chloro-2-((1-methyl-1H-pyrazol-5-yl)amino)pyrimidin-4-yl)-7-(3-methoxybenzyl)-6-methyl-6,7-dihydroimidazo[1,2-a]pyrazin-8(5H)-one], the results for the IC50 (at ERK2; in assay [1] (A-375)) were 0.5 nM and 38 nM, respectively.

As to `COc1cccc(CN2C(=O)c3nc(-c4nc(Nc5ccnn5C)ncc4C)cn3C[C@@H]2C)c1` [Example 23, (S)-7-(3-Methoxybenzyl)-6-methyl-2-(5-methyl-2-((1-methyl-1H-pyrazol-5-yl)amino)pyrimidin-4-yl)-6,7-dihydroimidazo[1,2-a]pyrazin-8(5H)-one], the results for the 50% inhibitory concentration (IC50) (on ERK2; in assay [1] (A-375)) were 0.6 nM and 40 nM, respectively.

With `COC[C@H]1Cn2cc(-c3nc(Nc4ccnn4C)ncc3C)nc2C(=O)N1Cc1cccc(OC)c1` [Example 41, (R)-7-(3-Methoxybenzyl)-6-(methoxymethyl)-2-(5-methyl-2-((1-methyl-1H-pyrazol-5-yl)amino)pyrimidin-4-yl)-6,7-dihydroimidazo[1,2-a]pyrazin-8(5H)-one], the IC50 at ERK2 was 1.5 nM; in assay [1] (A-375), 130 nM.

On to `COC[C@H]1Cn2cc(-c3nc(Nc4ccnn4C)ncc3C)nc2C(=O)N1Cc1cc(F)cc(F)c1` [Example 40, (R)-7-(3,5-difluorobenzyl)-6-(methoxymethyl)-2-(5-methyl-2-((1-methyl-1H-pyrazol-5-yl)amino)pyrimidin-4-yl)-6,7-dihydroimidazo[1,2-a]pyrazin-8(5H)-one], for which the half-inhibitory concentration (IC50) on ERK2 is 1.1 nM; in assay [1] (A-375), 32 nM.

As to `Cc1cnc(Nc2ccnn2C)nc1-c1cn2c(n1)C(=O)N(Cc1cccc(C(F)F)n1)[C@H](C)C2` [Example 37, (R)-7-((6-(Difluoromethyl)pyridin-2-yl)methyl)-6-methyl-2-(5-methyl-2-((1-methyl-1H-pyrazol-5-yl)amino)pyrimidin-4-yl)-6,7-dihydroimidazo[1,2-a]pyrazin-8(5H)-one], the IC50 on ERK2 is 0.7 nM; in assay [1] (A-375), 64 nM.

Regarding `COC[C@H]1Cn2cc(-c3nc(Nc4ccnn4C)ncc3C)nc2C(=O)N1Cc1cccc(C(F)F)c1` [Example 38, (R)-7-(3-(Difluoromethyl)benzyl)-6-(methoxymethyl)-2-(5-methyl-2-((1-methyl-1H-pyrazol-5-yl)amino)pyrimidin-4-yl)-6,7-dihydroimidazo[1,2-a]pyrazin-8(5H)-one], the half-maximal inhibitory concentration (IC50) is 0.7 nM on ERK2 and 8 nM in assay [1] (A-375).

As for `C[C@H]1Cn2cc(-c3nc(Nc4ccnn4C)ncc3Cl)nc2C(=O)N1Cc1cccc(C(F)(F)F)n1` [Example 10], the values for the IC50 (on ERK2; in assay [1] (A-375)) were 1.1 nM and 55 nM, respectively.

As to `Cc1cnc(Nc2ccnn2C)nc1-c1cn2c(n1)C(=O)N(Cc1cccc(C(F)F)n1)[C@@H](C)C2` [Example 25, (S)-7-((6-(Difluoromethyl)pyridin-2-yl)methyl)-6-methyl-2-(5-methyl-2-((1-methyl-1H-pyrazol-5-yl)amino)pyrimidin-4-yl)-6,7-dihydroimidazo[1,2-a]pyrazin-8(5H)-one], the figures for the IC50 (on ERK2; in assay [1] (A-375)) were 0.7 nM and 130 nM, respectively.

For the molecule `COC[C@H]1Cn2cc(-c3nc(Nc4ccnn4C)ncc3C)nc2C(=O)N1Cc1cccc(C(F)(F)F)n1` [Example 39, (R)-6-(Methoxymethyl)-2-(5-methyl-2-((1-methyl-1H-pyrazol-5-yl)amino)pyrimidin-4-yl)-7-((6-(trifluoromethyl)pyridin-2-yl)methyl)-6,7-dihydroimidazo[1,2-a]pyrazin-8(5H)-one], the results for the IC50 (at ERK2; in assay [1] (A-375)) were 1.8 nM and 70 nM, respectively.

Consider `Cc1cnc(Nc2ccnn2C)nc1-c1cn2c(n1)C(=O)N(Cc1cc(C(F)(F)F)ccn1)[C@@H](C)C2` [Example 29, (S)-6-Methyl-2-(5-methyl-2-((1-methyl-1H-pyrazol-5-yl)amino)pyrimidin-4-yl)-7-((4-(trifluoromethyl)pyridin-2-yl)methyl)-6,7-dihydroimidazo[1,2-a]pyrazin-8(5H)-one], for which the IC50 at ERK2 was found to be 0.9 nM; in assay [1] (A-375), 130 nM.

With `Cc1cnc(Nc2ccnn2C)nc1-c1cn2c(n1)C(=O)N(Cc1cccc(C(F)(F)F)n1)[C@H](C)C2` [Example 36, (R)-6-Methyl-2-(5-methyl-2-((1-methyl-1H-pyrazol-5-yl)amino)pyrimidin-4-yl)-7-((6-(trifluoromethyl)pyridin-2-yl)methyl)-6,7-dihydroimidazo[1,2-a]pyrazin-8(5H)-one], the IC50 at ERK2 came out at 1.4 nM; in assay [1] (A-375) it was 51 nM.

In the case of `C[C@H]1Cn2cc(-c3nc(Nc4ccnn4C)ncc3Cl)nc2C(=O)N1Cc1cccc(C(F)F)n1` [Example 9, (S)-2-(5-Chloro-2-((1-methyl-1H-pyrazol-5-yl)amino)pyrimidin-4-yl)-7-((6-(difluoromethyl)pyridin-2-yl)methyl)-6-methyl-6,7-dihydroimidazo[1,2-a]pyrazin-8(5H)-one], the IC50 on ERK2 turned out to be 0.5 nM; in assay [1] (A-375), 190 nM.

As to `C[C@H]1Cn2cc(-c3nc(Nc4ccnn4C)ncc3Cl)nc2C(=O)N1Cc1ccnc(C(F)(F)F)n1` [Example 8, (S)-2-(5-chloro-2-((1-methyl-1H-pyrazol-5-yl)amino)pyrimidin-4-yl)-6-methyl-7-((2-(trifluoromethyl)pyrimidin-4-yl)methyl)-6,7-dihydroimidazo[1,2-a]pyrazin-8(5H)-one], the figures for the half-inhibitory concentration (IC50) (at ERK2; in assay [1] (A-375)) were 1.1 nM and 210 nM, respectively.

Consider `COC[C@@H]1Cn2cc(-c3nc(Nc4ccnn4C)ncc3C)nc2C(=O)N1Cc1ccc(F)c(F)c1` [Example 35, Ethanesulfonic acid adduct of (S)-7-(3,4-difluorobenzyl)-6-(methoxymethyl)-2-(5-methyl-2-((1-methyl-1H-pyrazol-5-yl)amino)pyrimidin-4-yl)-6,7-dihydroimidazo[1,2-a]pyrazin-8(5H)-one], for which the IC50 in assay [1] (A-375) came out at 93 nM.

Regarding `Cc1cnc(Nc2ccnn2C)nc1-c1cn2c(n1)C(=O)N(Cc1ccc(F)c(F)c1)CC2` [Example 33, 7-(3,4-Difluorobenzyl)-2-(5-methyl-2-((1-methyl-1H-pyrazol-5-yl)amino)pyrimidin-4-yl)-6,7-dihydroimidazo[1,2-a]pyrazin-8(5H)-one], the IC50 on ERK2 was 0.8 nM; in assay [1] (A-375, 2 h), 31 nM.

Values taken from patent publication US10202391B2, “Chemical compounds” (AstraZeneca AB, priority 2015, dated 2019).
